Consider four molecules from US12642862B2, “Anti-CD79B antibody-drug conjugate, and preparation method therefor and pharmaceutical use thereof” (TUOJIE BIOTECH (SHANGHAI) CO., LTD., priority 2020, dated 2026).

For one assay, the system named is SKBR3. The assay can be described thus: Test Example 1 in vitro cytotoxic activity (CTG), SKBR3. Particulars: for IC50: Homo sapiens, SK-BR-3, 120 h. The assay is classed as cell-based. The method, then: (§1) In this experiment, the ATP content was determined using CTG to reflect the survival condition of the tumor cells. […] The killing effect of the toxin molecule was then assayed according to this condition.
(§2) 1) Cell plating: each of A549, SKBR3 and MDA-MB-468 was digested with pancreatin, resuspended in a culture medium and counted, and 6.33×10^5 cells were added to the medium to make a final volume of 38 mL. 180 μL of the culture medium was plated in a 96-well plate (3903) to obtain a cell density of 3 K/well, and the cells were cultured at 37° C. for 24 h.
(§3) 2 mM solution (10-fold dilution of stock solution in DMSO) was prepared in column 1 of the plate 1, then 10-fold gradient dilution in DMSO was performed in columns 2 to 10. The wells in column 11 were filled with DMSO. 95 μL of corresponding culture medium was added to each well of columns 2 to 11 of the plate 2, and 5 μL of solution was pipetted from columns 2 to 11 of the plate 1 and added to the plate 2. After the solution was mixed well, 20 μL of solution was pipetted and added to the plated cells. Each sample was run in duplicate. The cells were continuously cultured for 5 days.
(§4) 3) CTG assay: the plate was taken out and allowed to equilibrate to room temperature. 90 μL of CTG was added to each well and reacted at room temperature for 10 min away from the light. The luminescence value was read using a microplate reader and IC50 was calculated.

The subject of another assay is MDA-MB-468. The assay can be described thus: Test Example 1 in vitro cytotoxic activity (CTG), MDA-MB-468. The assay is classed as cell-based. Particulars: for IC50: Homo sapiens. The method, then:
as §1, §2, §3, §4

For a further assay, the system named is A549. The assay can be described thus: Test Example 1 in vitro cytotoxic activity (CTG), A549. The assay is classed as cell-based. Particulars: for IC50: Homo sapiens. The method, then:
as §1, §2, §3, §4

In assay [1] the target is T1, CD79B protein on the surface of DoHH2 cells (Homo sapiens, UniProt P40259).
T1 construct: endogenous in cells; host or cells: DoHH2 (DOHH-2) cells
T1 sequence (P40259 29-229): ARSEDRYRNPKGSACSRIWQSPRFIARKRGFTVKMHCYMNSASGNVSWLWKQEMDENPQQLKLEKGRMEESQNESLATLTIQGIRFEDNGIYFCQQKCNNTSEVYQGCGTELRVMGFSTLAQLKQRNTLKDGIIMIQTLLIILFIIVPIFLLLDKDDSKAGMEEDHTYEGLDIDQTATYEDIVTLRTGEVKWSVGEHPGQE
T1 sequence (P11912 33-226 partner): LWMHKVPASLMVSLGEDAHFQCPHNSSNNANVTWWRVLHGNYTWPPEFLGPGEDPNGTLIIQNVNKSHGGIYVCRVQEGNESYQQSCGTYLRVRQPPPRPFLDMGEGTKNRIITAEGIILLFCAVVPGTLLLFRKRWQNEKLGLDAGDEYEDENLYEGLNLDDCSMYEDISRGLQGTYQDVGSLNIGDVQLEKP
The assay can be described thus: FACS of anti-human CD79B hybridoma positive clones. The assay is classed as binding. The method, then:
4) FACS screening The suspension of DoHH2 cells was centrifuged, resuspended in PBS containing 0.1% BSA, and counted. The test serum was added, and the cells were incubated at room temperature for 60 min and washed. Then Anti-Mouse IgG (Fc specific)-FITC secondary antibody was added, and the cells were incubated at room temperature for 30 min away from the light, washed three times, gently resuspended in PBS containing 0.1% BSA, and loaded on the machine for assay.
(§5) 5) Identification of hybridoma positive clones A plurality of specific antibodies against human CD79B antigen were obtained; and 17 strains of hybridomas having strongest binding force to ELISA and FACS in assays were taken for production and purification of antibodies. Specific antibodies against monkey CD79B antigen were also obtained; and 4 strains of hybridomas having strongest binding force to ELISA and FACS in assays were taken for production and purification of antibodies. Assay results of anti-monkey CD79B hybridoma positive clone cells by FACS are shown in Table 4. mIgG was used as negative control in the both assays.

In assay [2] the target is T1, CD79B protein on the surface of DoHH2 cells. The assay can be described thus: FACS of purified anti-human CD79B mouse monoclonal antibodies on DoHH2 cells. In kind it is binding. Particulars: for FACS binding force: antibodies diluted 1:10 from 100 nM, FIGS. 9A, 9B; for FACS binding force compared with SN8: positive control antibody SN8. The method, then:
3) Assay on anti-human CD79B mouse monoclonal antibodies by FACS The cell suspension of DoHH2 cells was centrifuged, resuspended in PBS containing 0.1% BSA, and counted. 100 μL of antibody diluted in a 1:10 ratio from 100 nM was added, and the cells were incubated at room temperature for 1 h and washed three times. Then Anti-Mouse IgG (Fc specific)-FITC secondary antibody was added, and the cells were incubated at room temperature for 30 min away from the light, washed three times, gently resuspended in PBS containing 0.1% BSA, and loaded on the machine for assay. […] The specific data are shown in FIGS. 9A and 9B, in which hIgG1 is a negative control antibody and SN8 is a positive control antibody. SN8 is an antibody (reference sequence source: US20170362318A) used in the antibody-drug conjugate polatuzumab vedotin developed by Roche pharmaceutical. Polatuzumab vedotin has been approved by the FDA for marketing.

Assay [3] deals with T2, human CD79B (Homo sapiens, UniProt P40259).
T2 sequence (P40259 29-159 limits assumed): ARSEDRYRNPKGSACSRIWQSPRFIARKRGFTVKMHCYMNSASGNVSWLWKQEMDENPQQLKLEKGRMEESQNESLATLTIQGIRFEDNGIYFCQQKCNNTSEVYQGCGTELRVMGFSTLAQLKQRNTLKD
The assay can be described thus: ELISA of anti-human CD79B hybridoma positive clones. The assay is classed as binding. Particulars: hybridoma cell supernatant, read at 450 nm. Further details: the extracellular region (ECD) of human CD79B comprises 159 amino acids (Met1-Asp159); made in house; host or cells: 293F cells. The method, then:
(§6) 3) ELISA screening A 96-well plate was coated with 1 μg/mL antigen at 50 μL/well and incubated in a refrigerator at 4° C. overnight. The next day, the coated antigen plate was washed once (washing solution: 1×PBST). After washing, the plate was blocked with 1% BSA blocking solution prepared in 1×PBST at 37° C. for 1 h. After washing the plate 3 times with 1×PBST, 50 μL of the test cell supernatant was added, and the plate was incubated in an incubator at 37° C. for 1 h. After washing the plate 3 times with 1×PBST, 100 μL of goat anti-mouse secondary antibody diluted in a 1:5000 ratio was added, and the plate was incubated in an incubator at 37° C. for 0.5 h. After washing the plate, TMB color development solutions A and B were mixed in a 1:1 ratio for color development. 15 min later, the color development reaction was stopped with 1 N hydrochloric acid. […] value was read at 450 nm on a Spectra Max M5 microplate reader.
as §5

Assay [4] concerns the target T2, human CD79B. The assay can be described thus: ELISA of purified anti-human CD79B mouse monoclonal antibodies. In kind it is binding. Further details: the extracellular region (ECD) of human CD79B comprises 159 amino acids (Met1-Asp159); made in house; host or cells: 293F cells. Particulars: purified antibodies diluted 1:10 from 100 nM; FIG. 8. The method, then:
as §6, with “2) Assay on anti-human CD79B mouse monoclonal antibodies by” for “3)”, “ELISA” for “ELISA screening”, “antibody diluted in a 1:10 ratio from 100 nM” for “the test cell supernatant”

Where two headings read alike, the source gives them in different places.

As to `C=C1C[C@@H]2CC[C@@]34C[C@H]5O[C@H]6[C@@H](O3)[C@H]3O[C@H](CC[C@@H]3O[C@H]6[C@H]5O4)CC(=O)C[C@@H]3[C@@H](OC)[C@@H](C[C@@H](CN)OC)O[C@H]3C[C@H]3O[C@@H](CC[C@@H]1O2)C[C@@H](C)C3=C` [D-1], the IC50 in the assay on SKBR3 was 0.205 nM; in the assay with MDA-MB-468 (MDA-MB-468, 120 h) it was 0.183 nM; in the assay on A549 (A549, 120 h), 0.515 nM. The “Maximum inhibition (%)” value came out at 96.87% with SKBR3 (SKBR3, 5 days, CTG); 88.01% in the assay with MDA-MB-468 (MDA-MB-468, 5 days, CTG); 81.34% with A549 (A549, 5 days, CTG). In the assay with SKBR3 (three tumor cell lines SKBR3, MDA-MB-468 and A549), the “killing effect compared with eribulin” value is “good killing effect in three tumor cell lines and is significantly superior to the positive drug eribulin”.
Consider `C=C1C[C@@H]2CC[C@@]34C[C@H]5O[C@H]6[C@@H](O3)[C@H]3O[C@H](CC[C@@H]3O[C@H]6[C@H]5O4)CC(=O)C[C@@H]3[C@@H](OC)[C@@H](C[C@H](O)CN)O[C@H]3C[C@H]3O[C@@H](CC[C@@H]1O2)C[C@@H](C)C3=C` [Eribulin, reference compound], for which the IC50 in the assay with SKBR3 (SKBR3, 5 days, CTG, read-out: IC50) was determined as 0.715 nM; in the assay with MDA-MB-468 (120 h, MDA-MB-468, 5 days, CTG, read-out: IC50) it was 0.482 nM; in the assay with A549 (120 h, A549, 5 days, CTG, read-out: IC50), 0.661 nM.

B1: mAb016: anti-human CD79B mouse monoclonal antibody, hybridoma clone 83C2D4 (antibody, V domains shown)
VH: QVQLQQSGAELARPGASVKLSCKASGYIFTNYGIIWVKQRTGQGLEWIGDIFPGSGNTYYNENFKGKATLTADKSSSTAYMELRSLTSEDSAVYFCSRGELGDFDYWGQGTTLTVSS
VL: VVLMTQTPLSLPVSLGDQASISCRSSQNIVHSDGTTYLEWYLQKPGQSPKLLIYKVSNRFSGVPDRFSGSGSGTDFTLKISRVEAEDLGIYYCFQGSHVPWTFGGGTKLEIK
Regarding B1, in assay [1], the Mean fluorescence value was 9990. In addition, in assay [2], the FACS binding force result is “strongest FACS binding force” and the “FACS binding force compared with SN8” value is on record as “superior binding force to SN8”. Moreover, the “Results (OD450)” value in the assay with human CD79B [3] worked out at 3.46. Besides, the ELISA binding force result with human CD79B [4] was “strongest ELISA binding force”.

B2: mAb017: anti-human CD79B mouse monoclonal antibody, clone 86F11F6; VH SEQ ID NO: 5, VL SEQ ID NO: 6 (antibody, listed as Mus musculus, V domains shown)
VH: QVQLQQSGAELARPGASVKLSCKASGYTFTTYGINWVKQRTGQGLEWIGEIYPRSGNIYYNEKFKGKATLTADKSSSTAYMELRSLTSEDSAVYFCARGSDYDGDFAYWGQGTLVTVSA
VL: DVLMTQTPLSLPVSLGDQASISCRSSQSIVHHDGNTYLEWYLQKPGQSPKLLIYKVSNRFSGVPDRFSGSGSGTDFTLKISRVEAEDLGVYYCFQGSHVPWTFGGGTQLEIK
As to B2, the Mean fluorescence value in assay [1] was determined as 8132. Moreover, in assay [2], the FACS binding force result is “strongest FACS binding force” and the “FACS binding force compared with SN8” value was “superior binding force to SN8”. The “Results (OD450)” value with human CD79B [3] stood at 3.80. Moreover, in the assay with human CD79B [4], the ELISA binding force result is “strongest ELISA binding force”.
